# Legend:
# S100A4 [1] = target: T1, S100A4 (Homo sapiens, UniProt P26447); conditions: cited from earlier work
# T1 construct: We used full-length S100A4 for this analysis; made in house; host or cells: Escherichia coli BL21(DE3)
# Description: The site between helix III and helix IV of S100A4, exposed in the presence of Ca^2+, could accommodate an α-helical target of about 16 residues. The longer M32 mini ...
# S100A4 [2] = target: T1, S100A4; assay: Fluorescence anisotropy titration, F-M16^N binding to S100A4
# Protocol: (§1) Titration (circles) was carried out in 20 mM NaCl, 10 mM Hepes, 1 mM Mg^2+, and 100 μM Ca^2+ at pH 7.5 and 20 °C. […] (squares).
# (§2) Fluorescence spectra and anisotropy measurements were recorded using an SLM 8000 spectrofluorimeter (SLM, Urbana, IL). Fluorescein anisotropy measurements were carried out in L-format using a 515-nm emission filter. The four combinations of vertical and horizontal polarisers (vv, vh, hh, and hv) were each recorded for 30 s, and then the initial setting (vv) was re-read to check for signal stability. Calculations of the total fluorescence (Ivv + 2Ivh) and anisotropy (Ivv − Ivh/(Ivv + 2Ivh)), corrected for the g factor (hh/hv), were performed using an Excel spreadsheet. […] Note that the small correction for the emission intensity weighting to the observed anisotropy was not applied to these competitive titrations as the error will tend to cancel.
# S100A4 [3] = target: T1, S100A4; assay: Summary of rate and equilibrium constants defined according to Scheme 1; assay type: binding
# Description: The interaction of myosin tail fragments (M) with S100A4 depends on [Ca^2+], with little detectable binding in the absence of Ca^2+.[2,7,17] Scheme 1 presents a minimal pathway describing the thermodynamics and kinetics of this interaction, where arrow lengths indicate the approximate position of the equilibria involved.
# [formula] Scheme 1 Ca2+ and myosin peptide (M) binding to S100A4.
# The binding of Ca^2+ and a target peptide to S100A4, as shown in Scheme 1, is thermodynamically coupled so that K1K2 = K0K3. For simplicity, we assume a 1:1 stoichiometry and independent binding sites, which are unlikely to be true at least for the longer fragments. However, the trends in binding remain valid for more complex cases. Binding of target peptides to S100A4 in the absence of Ca^2+ is weak (K0 > 100 μM), while binding of target peptides to S100A4 in the presence of Ca^2+ (K2) is around a micromolar or less for longer fragments. Knowing that Ca^2+ binding to S100A4 has K1 = 2–5 μM (from the ITC data above and the literature[14,17,18]) requires that Ca^2+ binding to the M–S100A4 complex be very tight (K3 < 0.15 μM and even lower for M200). The latter cannot be easily determined directly as it requires protein concentrations greater than K0 (i.e., >>100 μM) so that the proteins remain bound together throughout the titration with Ca^2+. However, K3 is readily determined by calculation because values or limits for K0, K1, and K2 are available (Table 2). This aspect is addressed further below for M200, which has the complication of forming filaments at the ionic strength used.
# S100A4 [4] = target: T1, S100A4; assay: Stopped-flow fluorescein fluorescence, kinetics of myosin peptide binding to S100A4
# Protocol: (§3) Stopped-flow measurements were carried out using an SX18-MV apparatus (Applied Photophysics Ltd., Leatherhead, UK) with a dead time of 1.5 ms.[40] Records were generally captured on a logarithmic time base. Absorption (turbidity) measurements were usually recorded using a 10-mm pathlength, while fluorescence was recorded with a 2-mm pathlength for excitation and emission. The stated concentrations of components refer to the reaction chamber after mixing, unless otherwise indicated. Tyrosine fluorescence was excited at 280 nm, and the emission was collected through a UG11 bandpass filter plus a 305-nm longpass filter.[18] Fluorescein fluorescence was excited at 480 nm, and the emission was detected through a 515-nm longpass filter. Quin-2 fluorescence was measured by excitation at 336 nm, and emission was collected with a 455-nm longpass filter. For simultaneous recording of light scatter, a second channel was monitored through a UG11 filter. Rate constants were obtained by fitting to single-exponential or double-exponential functions using Kaleidagraph (Synergy Software) or Applied Photophysics Pro-Data software. Modeling of kinetic schemes was performed using Berkeley Madonna software.
# The value of K5 (scheme 2) was estimated from two independent experiments. From the competition
# (§4) A second estimate was calculated from the apparent Ca2+ binding constant observed in the turbidity assay […]
# Fig. S2. (a) Displacement of 0.1
# monitored by fluorescein emission intensity. […] (b)
# Ca2+ was mixed with 1 mM EGTA. […] Note in these
# stopped-flow measurements of fluorescein intensity, no polarising optics were present at the magic angle
# S100A4 [5] = target: T1, S100A4; assay: Competition of M32/M16^N with M200 for S100A4 (turbidity); assay type: biochemical; conditions: 250 μM peptide, 5 μM M200, 10 μM S100A4, Ca^2+
# Protocol: Fig. 9 Dissociation of M200 filaments by S100A4. (a) Initially, M200 was added (i) from a concentrated stock in 0.5 M NaCl to give a final concentration of 5 μM M200 (with respect to the polypeptide chain) in 100 mM NaCl, 10 mM Hepes, and 0.1 mM Ca^2+ at pH 7.5 and 20 °C. A biphasic rise in turbidity was recorded for 200 s (continuous line). Then 10 μM S100A4 (with respect to monomer concentration) was added (ii), followed by 0.2 mM EGTA (iii) and 1 mM Ca^2+ (iv). […] (b) M200 was diluted (i) into 100 mM NaCl to form filaments as in (a), then 5 μM S100A4 was added (ii), causing a 54% drop in turbidity. A further 5 μM S100A4 (iii) caused turbidity to fall to almost zero. (c) Stopped-flow records monitoring the dissociation of 5 μM M200 filaments on jumping [NaCl] from 100 mM to 120 mM NaCl. Other components of the buffer were 20 mM Hepes, 1 mM Mg^2+, and 100 μM Ca^2+ at pH 7.5 and 20 °C. […] In the presence of 20 μM S100A4 (lower trace), the turbidity decreased by 87% with a rate constant of 0.2 s^− 1.
# Further information on Scheme 2 was obtained from competition assays. […] An independent estimate of K5 based on the Ca^2+ dependence of the turbidity assay yielded a value of 0.003 μM (see Supplementary Data).
# The decrease in fluorescence, […]
# that F-M16N binding was slightly faster. […]
# as §4
# S100A4 [6] = target: T1, S100A4; conditions: peptide residues 1908–1923; cited from earlier work
# Description: Our kinetic studies are also used to redefine the minimal binding fragment of the NM-MHC IIA tail (Fig. 1). Using a series of overlapping fragments and a blot overlay assay, Kriajevska et al. previously mapped the S100A4 binding site of nonmuscle myosin IIA to a 29-amino-acid region near the C-terminus (residues 1908–1936 in the current numbering system).[9]
# S100A4 [7] = target: T1, S100A4; assay: Quin-2 fluorescence, Ca^2+ dissociation from S100A4 in the presence of target peptides; assay type: binding; conditions: 50 μM peptide premixed with 10 μM S100A4; 100 mM NaCl, 10 mM Hepes, 100 μM Ca^2+, pH 7.5, 20 °C
# Protocol: Ca^2+ dissociation measurements for wild-type S100A4, using Quin-2 as described above, were repeated as a control for the effect of target peptides on this process. On mixing 10 μM S100A4 in the presence of Ca^2+ with 100 μM Quin-2, the observed profile was fitted to a single exponential with kobs = 17 s^− 1 (Fig. 5a; cf. k− 1 in Scheme 1).
# Fig. 5 Dissociation of Ca^2+ from S100A4 in the absence and in the presence of target peptides monitored using Quin-2 fluorescence. (a) Mixed with 100 μM Quin-2 was 10 μM S100A4 + 50 μM Ca^2+ (stopped-flow reaction chamber concentrations). A superposed fit to a single exponential yields kobs = 17 s^− 1. […] (d) As in (a), but with 2.5 μM M200 premixed with 5 μM S100A4. A biphasic exponential fit yielded rate constants of 13 s^− 1 (A = 26%) and 0.30 s^− 1 (A = 74%). […] Experiments were carried out in either 20 mM NaCl, 20 mM Tris, 1 mM DTT, and 100 μM Ca^2+ at pH 7.5 and 20 °C (a and b; cf. Malashkevich et al.[17]), or 100 mM NaCl, 10 mM Hepes, and 100 μM Ca^2+ at pH 7.5 and 20 °C (c and d). […] Rate constants were unaffected by the inclusion of 1 mM Mg^2+.
# as §3, with “Rate constants were obtained by fitting to single-exponential or double-exponential functions using Kaleidagraph (Synergy Software) or Applied Photophysics Pro-Data software. Modeling of kinetic schemes was performed using Berkeley Madonna software.” left out
# S100A4 [8] = target: T1, S100A4; assay: Competition with F-M16^N binding to S100A4 (fluorescence anisotropy); conditions: read-out: Kd (K2) by competition
# Protocol: as §1, §2
# T1 sequence (P26447 whole entry): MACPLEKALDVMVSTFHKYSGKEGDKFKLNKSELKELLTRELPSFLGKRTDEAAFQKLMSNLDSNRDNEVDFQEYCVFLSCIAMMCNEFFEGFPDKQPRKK
compound,measurement,setting,value
R1893-R1923 myosin fragment: R1893-R1923 myosin fragment of Malashkevich et al.,stoichiometry,S100A4 [1],~0.5 mol of peptide per mole of S100A4 (dimer)
CSCC[C@H](NC(=O)[C@H](C)NC(=O)[C@H](CC(=O)O)NC(=O)CCCCCNC(=S)Nc1ccc2c(c1)C(=O)OC21c2ccc(O)cc2Oc2cc(O)ccc21)C(=O)N[C@@H](CC(N)=O)C(=O)N[C@@H](CCCNC(=N)N)C(=O)N[C@@H](CCC(=O)O)C(=O)N[C@H](C(=O)N[C@@H](CO)C(=O)N[C@@H](CO)C(=O)N[C@@H](CC(C)C)C(=O)N[C@@H](CCCCN)C(=O)N[C@@H](CC(N)=O)C(=O)N[C@@H](CCCCN)C(=O)N[C@@H](CC(C)C)C(=O)N[C@@H](CCCNC(=N)N)C(=O)N[C@@H](CCCNC(=N)N)C(N)=O)C(C)C [F-M16^N],quench of total fluorescein fluorescence on binding,S100A4 [2],~35%
same,k1,"S100A4 [3]; Ca^2+ association to free S100A4, common to all targets",3.2 μM^− 1 s^− 1
same,k3,S100A4 [3]; Ca^2+ association to peptide–S100A4,> 500 μM^− 1 s^− 1
same,k− 1,"S100A4 [3]; Ca^2+ dissociation from free S100A4, common to all targets",16 s^− 1
same,k− 3,S100A4 [3]; Ca^2+ dissociation from peptide–S100A4–Ca^2+,9.4 s^− 1
same,k2,S100A4 [3]; peptide association to S100A4–Ca^2+,4.9 μM^− 1 s^− 1
same,k− 2,S100A4 [3]; peptide dissociation from S100A4–Ca^2+,6.2 s^− 1
same,displacement rate constant by excess M32,"S100A4 [4]; 0.1 μM F-M16^N, 5 μM S100A4, 60 μM M32, Ca^2+",7.7 s^− 1
same,"kobs on mixing with EGTA (Ca^2+ dissociation from complex, k− 3)","S100A4 [4]; 0.1 μM F-M16^N, 10 μM S100A4, 50 μM Ca^2+, 1 mM EGTA",9.4 s^− 1
same,kobs of binding,"S100A4 [4]; 0.1 μM F-M16^N, 25 μM S100A4",138 s^− 1
same,calculated kobs via k− 2 and k− 1 route,S100A4 [4]; 10 μM S100A4,1.8 s^− 1
same,maximum kobs,S100A4 [4]; above 25 μM S100A4,150 s^− 1
same,association rate constant k2 relative to M32,"S100A4 [4]; competition with equimolar M32, modelled",about twice as large as that of M32
same,fluorescence quench overshoot,S100A4 [4]; equimolar F-M16N and M32 mixed with equimolar S100A4,12%
same,amplitude of fluorescence decrease with competitor,"S100A4 [4]; equimolar F-M16N and M32 with equimolar S100A4, relative to absence of M32",about half the amplitude observed in the absence of M32
same,"dissociation rate constants, F-M16N vs M32",S100A4 [4]; modelled,similar
same,kon,S100A4 [4]; read-out: association rate constant kon (k2),4.9e+06 M⁻¹ s⁻¹
same,koff,S100A4 [4]; read-out: dissociation rate constant koff (k− 2),6.2 s⁻¹
same,"k3, Ca^2+ binding to preformed peptide–S100A4 complex",S100A4 [4]; thermodynamic balance of Scheme 1,> 5 × 10^8 M^− 1 s^− 1
CSCC[C@H](NC(=O)[C@H](C)NC(=O)[C@H](CC(=O)O)NC(C)=O)C(=O)N[C@@H](CC(N)=O)C(=O)N[C@@H](CCCNC(=N)N)C(=O)N[C@@H](CCC(=O)O)C(=O)N[C@H](C(=O)N[C@@H](CO)C(=O)N[C@@H](CO)C(=O)N[C@@H](CC(C)C)C(=O)N[C@@H](CCCCN)C(=O)N[C@@H](CC(N)=O)C(=O)N[C@@H](CCCCN)C(=O)N[C@@H](CC(C)C)C(=O)N[C@@H](CCCNC(=N)N)C(=O)N[C@@H](CCCNC(=N)N)C(N)=O)C(C)C [M16^N],inhibition of turbidity change amplitude,S100A4 [5],no effect
same,"difference in binding constant vs longer fragments (1851–1960, 1893–1923)",S100A4 [6],~2 -fold
same,"kobs, Ca^2+ dissociation with peptide",S100A4 [7],16 s^− 1
same,Kd,S100A4 [8],≥ 100 µM
